Laboratory results reported in ChEMBL document CHEMBL1687815, “In vivo selection of a missense mutation in adeR and conversion of the novel blaOXA-164 gene into blaOXA-58 in carbapenem-resistant Acinetobacter baumannii isolates from a hospitalized patient” (2010).
In brackets after ≈: the same amount, converted by molar mass.

Columns and labels:
[1] = test system: Escherichia coli; assay: Antimicrobial activity against Escherichia coli NEB 5-alpha harboring plasmid WH1266 by Etest; format: functional
[2] = test system: Escherichia coli; assay: Antimicrobial activity against Escherichia coli NEB 5-alpha harboring beta-lactamase OXA-164 by Etest; format: functional
[3] = test system: Escherichia coli; assay: Antimicrobial activity against Escherichia coli NEB 5-alpha harboring beta-lactamase OXA-58 by Etest; format: functional
[4] = test system: Acinetobacter baumannii; assay: Antimicrobial activity against Acinetobacter baumannii ATCC 19606 harboring plasmid WH1266 by Etest; format: functional; details: ATCC 19606 = CIP 70.34 = JCM 6841
[5] = test system: Acinetobacter baumannii; assay: Antimicrobial activity against Acinetobacter baumannii ATCC 19606 harboring beta-lactamase OXA-164 by Etest; format: functional; details: ATCC 19606 = CIP 70.34 = JCM 6841
[6] = test system: Acinetobacter baumannii; assay: Antimicrobial activity against Acinetobacter baumannii ATCC 19606 harboring beta-lactamase OXA-58 by Etest; format: functional; details: ATCC 19606 = CIP 70.34 = JCM 6841
[7] = test system: Acinetobacter baumannii; assay: Antimicrobial activity against Acinetobacter baumannii ATCC 17978 harboring plasmid WH1266 by Etest; format: functional
[8] = test system: Acinetobacter baumannii; assay: Antimicrobial activity against Acinetobacter baumannii ATCC 17978 harboring beta-lactamase OXA-164 by Etest; format: functional
[9] = test system: Acinetobacter baumannii; assay: Antimicrobial activity against Acinetobacter baumannii ATCC 17978 harboring beta-lactamase OXA-58 by Etest; format: functional
[10] = test system: Acinetobacter baumannii; assay: Antimicrobial activity against Acinetobacter baumannii by vitek 2 system
[11] = test system: Acinetobacter baumannii; assay: Antimicrobial activity against Acinetobacter baumannii isolate J expressing beta-lactamase OXA-58 isolated from bedsore by Etest
[12] = test system: Acinetobacter baumannii; assay: Antimicrobial activity against Acinetobacter baumannii isolate J expressing beta-lactamase OXA-58 isolated from bedsore by vitek 2 system
[13] = test system: Acinetobacter baumannii; assay: Antimicrobial activity against Acinetobacter baumannii isolate F expressing beta-lactamase OXA-164 isolated from tracheostoma of patient by Etest
[14] = test system: Acinetobacter baumannii; assay: Antimicrobial activity against Acinetobacter baumannii isolate K expressing beta-lactamase OXA-58 isolated from blood culture of patient by Etest
[15] = test system: Acinetobacter baumannii; assay: Antimicrobial activity against Acinetobacter baumannii isolate G expressing beta-lactamase OXA-58 isolated from tracheal secretion of patient by Etest
[16] = test system: Acinetobacter baumannii; assay: Antimicrobial activity against Acinetobacter baumannii isolate H expressing beta-lactamase OXA-58 isolated from tracheal secretion of patient by Etest
[17] = test system: Acinetobacter baumannii; assay: Antimicrobial activity against Acinetobacter baumannii isolate I expressing beta-lactamase OXA-58 isolated from tracheal secretion of patient by Etest
[18] = test system: Acinetobacter baumannii; assay: Antimicrobial activity against Acinetobacter baumannii isolate L expressing beta-lactamase OXA-58 isolated from tracheal secretion of patient by Etest
[19] = test system: Acinetobacter baumannii; assay: Antimicrobial activity against Acinetobacter baumannii isolate M expressing beta-lactamase OXA-58 isolated from tracheal secretion of patient by Etest
[20] = test system: Acinetobacter baumannii; assay: Antimicrobial activity against Acinetobacter baumannii isolate A expressing beta-lactamase OXA-164 isolated from tracheal secretion of patient by Etest
[21] = test system: Acinetobacter baumannii; assay: Antimicrobial activity against Acinetobacter baumannii isolate B expressing beta-lactamase OXA-164 isolated from tracheal secretion of patient by Etest
[22] = test system: Acinetobacter baumannii; assay: Antimicrobial activity against Acinetobacter baumannii isolate C expressing beta-lactamase OXA-164 isolated from tracheal secretion of patient by Etest
[23] = test system: Acinetobacter baumannii; assay: Antimicrobial activity against Acinetobacter baumannii isolate D expressing beta-lactamase OXA-164 isolated from tracheal secretion of patient by Etest
[24] = test system: Acinetobacter baumannii; assay: Antimicrobial activity against Acinetobacter baumannii isolate E expressing beta-lactamase OXA-164 isolated from tracheal secretion of patient by Etest
[25] = test system: Acinetobacter baumannii; assay: Antimicrobial activity against Acinetobacter baumannii isolate F expressing beta-lactamase OXA-164 isolated from tracheostoma of patient by vitek 2 system
[26] = test system: Acinetobacter baumannii; assay: Antimicrobial activity against Acinetobacter baumannii isolate K expressing beta-lactamase OXA-58 isolated from blood culture of patient by vitek 2 system
[27] = test system: Acinetobacter baumannii; assay: Antimicrobial activity against Acinetobacter baumannii isolate G expressing beta-lactamase OXA-58 isolated from tracheal secretion of patient by vitek 2 system
[28] = test system: Acinetobacter baumannii; assay: Antimicrobial activity against Acinetobacter baumannii isolate H expressing beta-lactamase OXA-58 isolated from tracheal secretion of patient by vitek 2 system
[29] = test system: Acinetobacter baumannii; assay: Antimicrobial activity against Acinetobacter baumannii isolate I expressing beta-lactamase OXA-58 isolated from tracheal secretion of patient by vitek 2 system
[30] = test system: Acinetobacter baumannii; assay: Antimicrobial activity against Acinetobacter baumannii isolate L expressing beta-lactamase OXA-58 isolated from tracheal secretion of patient by vitek 2 system
[31] = test system: Acinetobacter baumannii; assay: Antimicrobial activity against Acinetobacter baumannii isolate M expressing beta-lactamase OXA-58 isolated from tracheal secretion of patient by vitek 2 system
[32] = test system: Acinetobacter baumannii; assay: Antimicrobial activity against Acinetobacter baumannii isolate A expressing beta-lactamase OXA-164 isolated from tracheal secretion of patient by vitek 2 system
[33] = test system: Acinetobacter baumannii; assay: Antimicrobial activity against Acinetobacter baumannii isolate B expressing beta-lactamase OXA-164 isolated from tracheal secretion of patient by vitek 2 system
[34] = test system: Acinetobacter baumannii; assay: Antimicrobial activity against Acinetobacter baumannii isolate C expressing beta-lactamase OXA-164 isolated from tracheal secretion of patient by vitek 2 system
[35] = test system: Acinetobacter baumannii; assay: Antimicrobial activity against Acinetobacter baumannii isolate D expressing beta-lactamase OXA-164 isolated from tracheal secretion of patient by vitek 2 system
[36] = test system: Acinetobacter baumannii; assay: Antimicrobial activity against Acinetobacter baumannii isolate E expressing beta-lactamase OXA-164 isolated from tracheal secretion of patient by vitek 2 system

For `C[C@@H](O)[C@H]1C(=O)N2C(C(=O)O)=C(SCCNC=N)C[C@H]12` [IMIPENEM ANHYDROUS], which MIC [1] is on record?
Its MIC is 0.19 µg/mL (≈ 0.635 µM).

And the MIC [2]?
The MIC was 0.25 µg/mL (≈ 0.835 µM).

And the MIC [3]?
The MIC was 0.5 µg/mL (≈ 1.67 µM).

What about the MIC [4] of the same compound?
Its MIC is 0.125 µg/mL (≈ 0.418 µM).

And the MIC [5]?
The MIC was > 32 µg/mL.

And the MIC [6]?
The MIC was > 32 µg/mL.

And the MIC [7]?
Its MIC is 0.25 µg/mL (≈ 0.835 µM).

What about the MIC [8] of the same compound?
The MIC was > 32 µg/mL.

And the MIC [9]?
The MIC was > 32 µg/mL.

And the MIC [10]?
Its MIC is 8 µg/mL (≈ 26.7 µM).

What about the MIC [11] of the same compound?
Its MIC is ≥ 64 µg/mL.

What about the MIC [12] of the same compound?
The MIC was ≥ 16 µg/mL.

And the MIC [13]?
Its MIC is 32 µg/mL (≈ 107 µM).

And the MIC [14]?
Its MIC is ≥ 64 µg/mL.

What about the MIC [15] of the same compound?
The MIC was ≥ 64 µg/mL.

What about the MIC [16] of the same compound?
Its MIC is ≥ 64 µg/mL.

And the MIC [17]?
Its MIC is ≥ 64 µg/mL.

What about the MIC [18] of the same compound?
The MIC was ≥ 64 µg/mL.

What about the MIC [19] of the same compound?
Its MIC is ≥ 64 µg/mL.

What about the MIC [20] of the same compound?
The MIC was 32 µg/mL (≈ 107 µM).

What about the MIC [21] of the same compound?
The MIC was 32 µg/mL (≈ 107 µM).

And the MIC [22]?
The MIC was 32 µg/mL (≈ 107 µM).

What about the MIC [23] of the same compound?
Its MIC is 32 µg/mL (≈ 107 µM).

And the MIC [24]?
The MIC was 32 µg/mL (≈ 107 µM).

What about the MIC [25] of the same compound?
The MIC was ≥ 16 µg/mL.

What about the MIC [26] of the same compound?
The MIC was ≥ 16 µg/mL.

What about the MIC [27] of the same compound?
The MIC was ≥ 16 µg/mL.

What about the MIC [28] of the same compound?
The MIC was ≥ 16 µg/mL.

What about the MIC [29] of the same compound?
The MIC was ≥ 16 µg/mL.

And the MIC [30]?
The MIC was ≥ 16 µg/mL.

And the MIC [31]?
The MIC was ≥ 16 µg/mL.

What about the MIC [32] of the same compound?
The MIC was 8 µg/mL (≈ 26.7 µM).

What about the MIC [33] of the same compound?
Its MIC is ≥ 16 µg/mL.

And the MIC [34]?
The MIC was ≥ 16 µg/mL.

And the MIC [35]?
Its MIC is ≥ 16 µg/mL.

What about the MIC [36] of the same compound?
Its MIC is ≥ 16 µg/mL.
